Results as given in patent US11053218B2, “3-(1-oxoisoindolin-2-yl)piperidine-2,6-dione derivatives and uses thereof” (Novartis AG, priority 2017, dated 2021).
Like-named read-outs stand apart in the source and are kept apart here.

What was measured:
Assay type in all cases: cell-based
IKZF1 = IKZF1 (Homo sapiens, UniProt Q13422+Q96SW2); experiment: Prolabel quantification of IKZF1 protein levels in 293GT cells; conditions: Prolabel assay, read-out: IKZF1 EC50
IKZF2 = IKZF2 (Homo sapiens, UniProt Q96SW2+Q9UKS7); experiment: Prolabel quantification of IKZF2 protein levels in 293GT cells
IKZF2, sequence (Q9UKS7 whole entry): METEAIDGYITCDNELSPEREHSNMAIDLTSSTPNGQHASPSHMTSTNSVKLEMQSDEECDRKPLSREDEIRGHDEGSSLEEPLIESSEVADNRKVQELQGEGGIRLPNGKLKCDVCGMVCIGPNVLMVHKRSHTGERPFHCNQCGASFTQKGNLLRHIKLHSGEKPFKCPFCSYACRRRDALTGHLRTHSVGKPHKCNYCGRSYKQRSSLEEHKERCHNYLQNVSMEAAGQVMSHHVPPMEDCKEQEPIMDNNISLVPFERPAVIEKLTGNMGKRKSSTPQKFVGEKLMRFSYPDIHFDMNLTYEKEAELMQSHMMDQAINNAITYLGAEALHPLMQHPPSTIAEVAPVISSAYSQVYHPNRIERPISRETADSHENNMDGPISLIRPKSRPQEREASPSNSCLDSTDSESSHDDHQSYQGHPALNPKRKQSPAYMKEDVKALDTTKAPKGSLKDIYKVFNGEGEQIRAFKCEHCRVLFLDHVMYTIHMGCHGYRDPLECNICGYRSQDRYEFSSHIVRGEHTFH
IKZF2, sequence (Q96SW2 whole entry): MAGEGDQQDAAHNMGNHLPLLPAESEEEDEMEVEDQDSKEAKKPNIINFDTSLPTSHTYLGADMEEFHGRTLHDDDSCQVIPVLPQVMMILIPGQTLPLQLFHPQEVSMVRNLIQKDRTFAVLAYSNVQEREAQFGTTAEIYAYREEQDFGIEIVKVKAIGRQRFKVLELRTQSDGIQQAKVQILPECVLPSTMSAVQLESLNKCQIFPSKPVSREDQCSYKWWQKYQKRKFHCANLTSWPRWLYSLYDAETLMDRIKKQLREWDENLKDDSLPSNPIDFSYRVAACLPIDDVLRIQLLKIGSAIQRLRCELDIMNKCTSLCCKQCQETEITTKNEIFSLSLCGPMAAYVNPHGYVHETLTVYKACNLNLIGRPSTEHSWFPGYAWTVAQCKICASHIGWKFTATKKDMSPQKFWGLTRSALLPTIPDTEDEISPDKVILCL
IKZF2, sequence (Q16531 whole entry partner): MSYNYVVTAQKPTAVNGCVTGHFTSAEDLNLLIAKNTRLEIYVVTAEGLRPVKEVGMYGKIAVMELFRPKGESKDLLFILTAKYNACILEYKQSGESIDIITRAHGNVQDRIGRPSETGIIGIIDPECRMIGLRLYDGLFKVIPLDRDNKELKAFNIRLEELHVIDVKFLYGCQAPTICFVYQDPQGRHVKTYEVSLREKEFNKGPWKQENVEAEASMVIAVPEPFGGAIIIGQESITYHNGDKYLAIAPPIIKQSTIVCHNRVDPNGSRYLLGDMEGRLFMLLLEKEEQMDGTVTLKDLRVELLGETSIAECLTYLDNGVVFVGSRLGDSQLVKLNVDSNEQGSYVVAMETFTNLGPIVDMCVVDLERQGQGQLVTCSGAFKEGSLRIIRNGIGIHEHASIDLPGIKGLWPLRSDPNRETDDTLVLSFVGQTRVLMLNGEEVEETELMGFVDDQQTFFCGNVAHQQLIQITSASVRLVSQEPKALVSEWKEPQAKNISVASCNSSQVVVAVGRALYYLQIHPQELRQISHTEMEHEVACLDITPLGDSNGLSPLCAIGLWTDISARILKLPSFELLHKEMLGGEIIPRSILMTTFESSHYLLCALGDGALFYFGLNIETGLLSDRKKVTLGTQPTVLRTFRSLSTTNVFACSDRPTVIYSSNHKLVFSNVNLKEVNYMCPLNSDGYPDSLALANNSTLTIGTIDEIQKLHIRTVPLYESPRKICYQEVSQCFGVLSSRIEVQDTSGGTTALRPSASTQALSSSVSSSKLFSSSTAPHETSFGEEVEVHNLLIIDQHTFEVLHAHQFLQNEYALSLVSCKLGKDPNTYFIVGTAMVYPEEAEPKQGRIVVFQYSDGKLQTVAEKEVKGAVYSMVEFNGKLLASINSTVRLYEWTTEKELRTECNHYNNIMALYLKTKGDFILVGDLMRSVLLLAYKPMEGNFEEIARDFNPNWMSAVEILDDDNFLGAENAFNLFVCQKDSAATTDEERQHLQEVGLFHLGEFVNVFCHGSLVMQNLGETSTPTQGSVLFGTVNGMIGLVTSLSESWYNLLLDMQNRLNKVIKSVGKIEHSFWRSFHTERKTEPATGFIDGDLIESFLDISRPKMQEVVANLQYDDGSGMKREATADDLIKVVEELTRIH

GSPT1 = GSPT1 (Homo sapiens, UniProt P15170+Q96SW2); experiment: Prolabel quantification of GSPT1 protein levels in 293GT cells; conditions: Prolabel assay, read-out: GSPT1 EC50
GSPT1, sequence (P15170 whole entry, the tested form may be a part): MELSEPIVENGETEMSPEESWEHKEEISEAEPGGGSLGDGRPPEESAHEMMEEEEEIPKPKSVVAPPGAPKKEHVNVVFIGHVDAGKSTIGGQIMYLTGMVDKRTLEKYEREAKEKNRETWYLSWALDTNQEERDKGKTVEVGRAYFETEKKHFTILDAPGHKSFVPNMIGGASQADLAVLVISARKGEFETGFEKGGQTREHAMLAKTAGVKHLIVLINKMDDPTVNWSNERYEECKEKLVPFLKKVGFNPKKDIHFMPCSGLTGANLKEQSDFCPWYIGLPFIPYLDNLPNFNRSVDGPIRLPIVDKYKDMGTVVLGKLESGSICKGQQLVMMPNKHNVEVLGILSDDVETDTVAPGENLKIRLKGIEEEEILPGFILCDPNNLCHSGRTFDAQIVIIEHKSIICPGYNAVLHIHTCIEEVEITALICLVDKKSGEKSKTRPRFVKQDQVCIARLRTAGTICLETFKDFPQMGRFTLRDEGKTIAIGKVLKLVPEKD
GSPT1, sequence (Q96SW2 whole entry, the tested form may be a part): as the sequence (Q96SW2 whole entry) above
GSPT1, sequence (Q16531 whole entry partner, the tested form may be a part): as the sequence (Q16531 whole entry partner) above
Experimental: The Prolabel system from DiscoverX was used to develop high-throughput and quantitative assays to measure changes in IKZF1, IKZF2 and GSPT1 protein levels in response to compounds. The prolabel tag was derived from the alpha fragment of beta galactosidase and has the following protein sequence: mssnslavvlqrrdwenpgvtqlnrlaahppfaswrnseeartdrpsqqlrslnge. The complementary fragment of beta-galactosidase (from DiscoverX), is added to the prolabel tag to form an active beta galactosidase enzyme whose activity can be precisely measured. In this way, the levels of a fusion protein with the prolabel tag can be quantified in cell lysates.
Lentiviral vectors, based on the Invitrogen pLenti6.2/V5 DEST backbone, were constructed that placed the prolabel tag upstream of IKZF1, IKZF2 or GSPT1 and expressed the fusion protein from a CMV promoter.
To ensure moderate and consistent expression of the prolabel fusion proteins across all cells in the population, stable cell lines were constructed from cells expressing a single copy of the construct. Lentivirus packaged with the constructs was made using the Virapower kit from Invitrogen.
The levels of prolabel tagged fusion proteins in compound treated cell lines were measured as follows:
Day 1, Cells were diluted to 1.0×10^6 cells/ml in normal growth medium. 17.5 μL of cells were plated in each well of a solid white 384 well plate. Plates were incubated overnight in a 37° C. tissue culture incubator.
Day 2, Serial dilutions of compounds were made in 384 well plates from 10 mM stocks. 15 μL of DMSO was added to each well of a 384 well plate. In the first column 15 μL of stock compound was added. The solution was mixed and 15 μL was transferred to the next column. This was repeated until 20 two-fold dilutions were prepared. 2.5 μL of diluted compounds were transferred into 60 μL of cell culture medium in another 384 well plate, and mixed well. 2.5 μL of this mixture was added to the plated cells. The final DMSO concentration was 0.5% and the highest concentration of compound was 50 μM. Plates were incubated overnight (e.g., about 14 h, 18 h, or 24 h) in a 37° C. tissue culture incubator.
Day 3, Plates were removed from the incubator and allowed to equilibrate at rt for 30 minutes. Prolabel substrate (DiscoverX PathHunter Prolabel Detection Kit, User manual: 93-0180) was added as described by the manufacturers protocols. Plates were incubated at rt for three hours and luminescence was read using an Envision reader (Perkin Elmer) Data was analyzed and visualized using the Spotfire software package.

[1] = 24 h, 10 μM, 24 h, 293GT cells; read-out: IKZF2 % protein reduction at 10 μM, 24 h
[2] = Prolabel assay, 293GT cells; read-out: IKZF2 EC50
[3] = Prolabel assay in HEK293GT cells, bar graph

IKZF1, sequence (Q13422 whole entry): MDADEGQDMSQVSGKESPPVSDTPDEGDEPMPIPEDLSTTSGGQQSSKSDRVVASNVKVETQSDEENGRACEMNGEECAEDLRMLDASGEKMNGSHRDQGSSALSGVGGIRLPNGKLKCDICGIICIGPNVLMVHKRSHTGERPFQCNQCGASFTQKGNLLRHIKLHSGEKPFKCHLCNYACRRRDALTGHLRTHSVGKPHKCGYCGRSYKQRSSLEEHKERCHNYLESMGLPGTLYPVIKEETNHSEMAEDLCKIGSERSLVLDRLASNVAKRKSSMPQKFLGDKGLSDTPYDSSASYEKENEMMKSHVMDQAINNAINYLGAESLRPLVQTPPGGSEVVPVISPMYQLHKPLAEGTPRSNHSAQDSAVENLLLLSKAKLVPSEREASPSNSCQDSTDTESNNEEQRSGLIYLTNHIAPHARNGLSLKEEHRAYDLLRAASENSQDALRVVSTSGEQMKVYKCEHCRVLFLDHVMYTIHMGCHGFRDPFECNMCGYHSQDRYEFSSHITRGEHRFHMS
IKZF1, sequence (Q96SW2 whole entry): as the sequence (Q96SW2 whole entry) above
IKZF1, sequence (Q16531 whole entry partner): as the sequence (Q16531 whole entry partner) above

SMILES | DC50 (IKZF1) | inhibition at 10 µM (IKZF2; [1]) | DC50 (IKZF2; [2]) | DC50 (GSPT1) | inhibition at 10 µM (IKZF2; 10 μM, 24 h, 293GT cells; read-out: IKZF2 % protein reduction at 10 μM, 24 h) | IKZF2 protein levels as compared to the control (DMSO) (IKZF2; [3])
CCC(C)(C)c1ccc(CN2CCC(c3ccc4c(c3)CN(C3CCC(=O)NC3=O)C4=O)CC2)cc1 (stereo not drawn) [Compound I-89, 3-(1-oxo-5-(1-(4-(tert-pentyl)benzyl)piperidin-4-yl)isoindolin-2-yl)piperidine-2,6-dione] | > 30000 nM | 70% | 33 nM | > 30000 nM | – | –
O=C1CCC(N2Cc3cc(C4CCN(Cc5ccc(-c6ccccc6)cc5)CC4)ccc3C2=O)C(=O)N1 (stereo not drawn) [Compound I-90, 3-(5-(1-([1,1′-biphenyl]-4-ylmethyl)piperidin-4-yl)-1-oxoisoindolin-2-yl)piperidine-2,6-dione] | > 50000 nM | – | 7 nM | > 50000 nM | 65% | –
O=C1CCC(N2Cc3cc(C4CCN(Cc5ccc(-n6cccn6)cc5)CC4)ccc3C2=O)C(=O)N1 (stereo not drawn) [Compound I-91, 3-(5-(1-(4-(1H-pyrazol-1-yl)benzyl)piperidin-4-yl)-1-oxoisoindolin-2-yl)piperidine-2,6-dione] | > 30000 nM | 75% | 18 nM | > 30000 nM | – | –
O=C1CCC(N2Cc3cc(C4CCN(Cc5ccc(Cl)cc5)CC4)ccc3C2=O)C(=O)N1 (stereo not drawn) [Compound I-97, 3-(5-(1-(4-chlorobenzyl)piperidin-4-yl)-1-oxoisoindolin-2-yl)piperidine-2,6-dione] | > 50000 nM | 55% | 27 nM | > 50000 nM | – | –
CC(C)(C)c1cccc(CN2CCC(c3ccc4c(c3)CN(C3CCC(=O)NC3=O)C4=O)CC2)c1 (stereo not drawn) [Compound I-107, 3-(5-(1-(3-(tert-butyl)benzyl)piperidin-4-yl)-1-oxoisoindolin-2-yl)piperidine-2,6-dione] | 140 nM | 80% | 23 nM | > 30000 nM | – | –
CC(C)Oc1cccc(CN2CCC(c3ccc4c(c3)CN(C3CCC(=O)NC3=O)C4=O)CC2)c1 (stereo not drawn) [Compound I-108, 3-(5-(1-(3-isopropoxybenzyl)piperidin-4-yl)-1-oxoisoindolin-2-yl)piperidine-2,6-dione] | > 30000 nM | 65% | 23 nM | > 30000 nM | – | –
O=C1CCC(N2Cc3cc(C4CCN(Cc5ccc(C6CCCC6)cc5)CC4)ccc3C2=O)C(=O)N1 (stereo not drawn) [Compound I-110, 3-(5-(1-(4-cyclopentylbenzyl)piperidin-4-yl)-1-oxoisoindolin-2-yl)piperidine-2,6-dione] | > 30000 nM | 75% | 74 nM | > 30000 nM | – | –
O=C1CCC(N2Cc3cc(C4CCN(Cc5ccc(F)cc5)CC4)ccc3C2=O)C(=O)N1 (stereo not drawn) [Compound I-112, 3-(5-(1-(4-fluorobenzyl)piperidin-4-yl)-1-oxoisoindolin-2-yl)piperidine-2,6-dione] | > 50000 nM | 63% | 7 nM | > 50000 nM | – | –
O=C1CCC(N2Cc3cc(C4CCN(Cc5ccc(Cl)cc5Cl)CC4)ccc3C2=O)C(=O)N1 (stereo not drawn) [Compound I-113, 3-(5-(1-(2,4-dichlorobenzyl)piperidin-4-yl)-1-oxoisoindolin-2-yl)piperidine-2,6-dione] | > 30000 nM | 50% | 15 nM | > 30000 nM | – | –
O=C1CCC(N2Cc3cc(C4CCN(Cc5cc[nH]n5)CC4)ccc3C2=O)C(=O)N1 (stereo not drawn) [Compound I-118, 3-(5-(1-((1H-pyrazol-3-yl)methyl)piperidin-4-yl)-1-oxoisoindolin-2-yl)piperidine-2,6-dione] | > 50000 nM | 55% | 65 nM | > 50000 nM | – | –
Cc1nc2sccn2c1CN1CCC(c2ccc3c(c2)CN(C2CCC(=O)NC2=O)C3=O)CC1 (stereo not drawn) [Compound I-125, 3-(5-(1-((6-methylimidazo[2,1-b]thiazol-5-yl)methyl)piperidin-4-yl)-1-oxoisoindolin-2-yl)piperidine-2,6-dione] | > 30000 nM | 60% | 240 nM | > 30000 nM | – | –
O=C1CCC(N2Cc3cc(C4CCN(Cc5cccn6nccc56)CC4)ccc3C2=O)C(=O)N1 (stereo not drawn) [Compound I-128, 3-(1-oxo-5-(1-(pyrazolo[1,5-a]pyridin-4-ylmethyl)piperidin-4-yl)isoindolin-2-yl)piperidine-2,6-dione] | > 30000 nM | 75% | 12 nM | > 30000 nM | – | –
O=C1CCC(N2Cc3cc(C4CCN(Cc5ccc6scnc6c5)CC4)ccc3C2=O)C(=O)N1 (stereo not drawn) [Compound I-130, 3-(5-(1-(benzo[d]thiazol-5-ylmethyl)piperidin-4-yl)-1-oxoisoindolin-2-yl)piperidine-2,6-dione] | > 30000 nM | 80% | 8 nM | > 30000 nM | – | –
O=C1CCC(N2Cc3cc(C4CCN(Cc5cn(C6CCC6)nn5)CC4)ccc3C2=O)C(=O)N1 (stereo not drawn) [Compound I-134, 3-(5-(1-((1-cyclobutyl-1H-1,2,3-triazol-4-yl)methyl)piperidin-4-yl)-1-oxoisoindolin-2-yl)piperidine-2,6-dione] | > 30000 nM | 80% | 34 nM | > 30000 nM | – | –
O=C1CCC(N2Cc3cc(C4CCN(Cc5cc6n(n5)CCCC6)CC4)ccc3C2=O)C(=O)N1 (stereo not drawn) [Compound I-135, 3-(1-oxo-5-(1-((4,5,6,7-tetrahydropyrazolo[1,5-a]pyridin-2-yl)methyl)piperidin-4-yl)isoindolin-2-yl)piperidine-2,6-dione] | > 30000 nM | 60% | 57 nM | > 30000 nM | – | –
O=C1CCC(N2Cc3cc(C4CCN(Cc5cc6ccccc6[nH]5)CC4)ccc3C2=O)C(=O)N1 (stereo not drawn) [Compound I-136, 3-(5-(1-((1H-indo1-2-yl)methyl)piperidin-4-yl)-1-oxoisoindolin-2-yl)piperidine-2,6-dione] | > 30000 nM | 80% | 12 nM | > 30000 nM | – | decreased
O=C1CCC(N2Cc3cc(C4CCN(Cc5ccc6cn[nH]c6c5)CC4)ccc3C2=O)C(=O)N1 (stereo not drawn) [Compound I-137, 3-(5-(1-((1H-indazol-6-yl)methyl)piperidin-4-yl)-1-oxoisoindolin-2-yl)piperidine-2,6-dione] | > 30000 nM | 80% | 9 nM | > 30000 nM | – | –
NC(=O)c1cccc(CN2CCC(c3ccc4c(c3)CN(C3CCC(=O)NC3=O)C4=O)CC2)c1 (stereo not drawn) [Compound I-139, 3-((4-(2-(2,6-dioxopiperidin-3-yl)-1-oxoisoindolin-5-yl)piperidin-1-yl)methyl)benzamide] | > 30000 nM | 70% | 81 nM | > 30000 nM | – | –
O=C1CCC(N2Cc3cc(C4CCN(Cc5cnc(N6CCCC6)nc5)CC4)ccc3C2=O)C(=O)N1 (stereo not drawn) [Compound I-142, 3-(1-oxo-5-(1-((2-(pyrrolidin-1-yl)pyrimidin-5-yl)methyl)piperidin-4-yl)isoindolin-2-yl)piperidine-2,6-dione] | > 30000 nM | 75% | 16 nM | > 30000 nM | – | –
CC(C)(C)c1nc(CN2CCC(c3ccc4c(c3)CN(C3CCC(=O)NC3=O)C4=O)CC2)cs1 (stereo not drawn) [Compound I-143, 3-(5-(1-((2-(tert-butyl)thiazol-4-yl)methyl)piperidin-4-yl)-1-oxoisoindolin-2-yl)piperidine-2,6-dione] | > 30000 nM | 60% | 26 nM | > 30000 nM | – | –
O=C1CCC(N2Cc3cc(C4CCN(Cc5cnc(N6CCOCC6)nc5)CC4)ccc3C2=O)C(=O)N1 (stereo not drawn) [Compound I-147, 3-(5-(1-((2-morpholinopyrimidin-5-yl)methyl)piperidin-4-yl)-1-oxoisoindolin-2-yl)piperidine-2,6-dione] | > 30000 nM | 75% | 25 nM | > 30000 nM | – | decreased
Cc1ccc2c(CN3CCC(c4ccc5c(c4)CN(C4CCC(=O)NC4=O)C5=O)CC3)c[nH]c2c1 (stereo not drawn) [Compound I-149, 3-(5-(1-((6-methyl-1H-indol-3-yl)methyl)piperidin-4-yl)-1-oxoisoindolin-2-yl)piperidine-2,6-dione] | > 30000 nM | 80% | 16 nM | > 30000 nM | – | –
